PubChem BioAssay (NCI)
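Tested at 5 concentrations; 48 h exposure; 96-well plates; endpoints linearly interpolated, else capped at highest concentration. GI50 marks 50% less growth. TGI marks complete inhibition of growth.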

Assays:
Test in all cases: growth of human tumour cells (NCI), 48 h
IGROV1 ovarian = test system: IGROV1 ovarian
OVCAR-3 ovarian = test system: OVCAR-3 ovarian
A549 NSCLC = test system: A549 NSCLC
NCI-H23 lung = test system: NCI-H23 lung
UACC-62 melanoma = test system: UACC-62 melanoma
786-0 renal = test system: 786-0 renal
SF-539 CNS = test system: SF-539 CNS
OVCAR-8 ovarian = test system: OVCAR-8 ovarian
M14 melanoma = test system: M14 melanoma
BT-549 breast = test system: BT-549 breast
SK-MEL-5 melanoma = test system: SK-MEL-5 melanoma
COLO 205 colon = test system: COLO 205 colon
LOX IMVI melanoma = test system: LOX IMVI melanoma
SW-620 colon = test system: SW-620 colon
SK-OV-3 ovarian = test system: SK-OV-3 ovarian
KM12 colon = test system: KM12 colon
RXF 393 renal = test system: RXF 393 renal
HOP-62 NSCLC = test system: HOP-62 NSCLC
TK-10 renal = test system: TK-10 renal
RPMI-8226 leukemia = test system: RPMI-8226 leukemia
NCI-H226 lung = test system: NCI-H226 lung
PC-3 prostate = test system: PC-3 prostate
SN12C renal = test system: SN12C renal
T-47D breast = test system: T-47D breast
K-562 leukemia = test system: K-562 leukemia
HCT-116 colon = test system: HCT-116 colon
ACHN renal = test system: ACHN renal
HT29 colon = test system: HT29 colon
HCC-2998 colon = test system: HCC-2998 colon
MDA-MB-231 breast = test system: MDA-MB-231 breast
SK-MEL-2 melanoma = test system: SK-MEL-2 melanoma
SK-MEL-28 melanoma = test system: SK-MEL-28 melanoma
MDA-MB-435 = test system: MDA-MB-435
HOP-92 NSCLC = test system: HOP-92 NSCLC
NCI-H460 lung = test system: NCI-H460 lung
A498 renal = test system: A498 renal
OVCAR-4 ovarian = test system: OVCAR-4 ovarian
U251 CNS = test system: U251 CNS
SNB-75 CNS = test system: SNB-75 CNS
MCF7 breast = test system: MCF7 breast
NCI/ADR-RES ovarian = test system: NCI/ADR-RES ovarian
MALME-3M melanoma = test system: MALME-3M melanoma
UACC-257 melanoma = test system: UACC-257 melanoma
SF-268 CNS = test system: SF-268 CNS
SNB-19 CNS = test system: SNB-19 CNS
EKVX NSCLC = test system: EKVX NSCLC
HS 578T breast = test system: HS 578T breast
NCI-H522 lung = test system: NCI-H522 lung
CAKI-1 renal = test system: CAKI-1 renal
SF-295 CNS = test system: SF-295 CNS
HCT-15 colon = test system: HCT-15 colon
UO-31 renal = test system: UO-31 renal
DU-145 prostate = test system: DU-145 prostate
OVCAR-5 ovarian = test system: OVCAR-5 ovarian
MOLT-4 leukemia = test system: MOLT-4 leukemia

SMILES: N#Cc1ccccc1C#C/C=C\C#Cc1cccs1
- GI50 (IGROV1 ovarian): 42.7 µM
- TGI (IGROV1 ovarian): > 100 µM
- GI50 (OVCAR-3 ovarian): 14.1 µM
- TGI (OVCAR-3 ovarian): 34.2 µM
- GI50 (A549 NSCLC): 25 µM
- TGI (A549 NSCLC): > 100 µM
- GI50 (NCI-H23 lung): 33.2 µM
- TGI (NCI-H23 lung): > 100 µM
- GI50 (UACC-62 melanoma): 12.3 µM
- TGI (UACC-62 melanoma): > 100 µM
- GI50 (786-0 renal): 29.4 µM
- TGI (786-0 renal): 84.1 µM
- GI50 (SF-539 CNS): 14.4 µM
- TGI (SF-539 CNS): 34.1 µM
- GI50 (OVCAR-8 ovarian): 30.3 µM
- TGI (OVCAR-8 ovarian): > 100 µM
- GI50 (M14 melanoma): 11.4 µM
- TGI (M14 melanoma): 56.5 µM
- GI50 (BT-549 breast): 12.2 µM
- TGI (BT-549 breast): 94.8 µM
- GI50 (SK-MEL-5 melanoma): 14.5 µM
- TGI (SK-MEL-5 melanoma): 39 µM
- GI50 (COLO 205 colon): 14.3 µM
- TGI (COLO 205 colon): 32.2 µM
- GI50 (LOX IMVI melanoma): 15.7 µM
- TGI (LOX IMVI melanoma): 92.4 µM
- GI50 (SW-620 colon): 7.78 µM
- TGI (SW-620 colon): > 100 µM
- GI50 (SK-OV-3 ovarian): 28.9 µM
- TGI (SK-OV-3 ovarian): > 100 µM
- GI50 (KM12 colon): 3.93 µM
- TGI (KM12 colon): 16.8 µM
- GI50 (RXF 393 renal): 14.9 µM
- TGI (RXF 393 renal): 48.1 µM
- GI50 (HOP-62 NSCLC): 16.5 µM
- TGI (HOP-62 NSCLC): 61.4 µM
- GI50 (TK-10 renal): 20.7 µM
- TGI (TK-10 renal): 62.5 µM
- GI50 (RPMI-8226 leukemia): 11.1 µM
- TGI (RPMI-8226 leukemia): 51.2 µM
- GI50 (NCI-H226 lung): 47 µM
- TGI (NCI-H226 lung): > 100 µM
- GI50 (PC-3 prostate): 28.6 µM
- TGI (PC-3 prostate): > 100 µM
- GI50 (SN12C renal): 33 µM
- TGI (SN12C renal): > 100 µM
- GI50 (T-47D breast): 12.6 µM
- TGI (T-47D breast): > 100 µM
- GI50 (K-562 leukemia): 6.46 µM
- TGI (K-562 leukemia): > 100 µM
- GI50 (HCT-116 colon): 11.7 µM
- TGI (HCT-116 colon): 46 µM
- GI50 (ACHN renal): 32 µM
- TGI (ACHN renal): > 100 µM
- GI50 (HT29 colon): 11.8 µM
- TGI (HT29 colon): > 100 µM
- GI50 (HCC-2998 colon): 28.3 µM
- TGI (HCC-2998 colon): > 100 µM
- GI50 (MDA-MB-231 breast): 26.1 µM
- TGI (MDA-MB-231 breast): > 100 µM
- GI50 (SK-MEL-2 melanoma): 62.8 µM
- TGI (SK-MEL-2 melanoma): > 100 µM
- GI50 (SK-MEL-28 melanoma): 14.8 µM
- TGI (SK-MEL-28 melanoma): > 100 µM
- GI50 (MDA-MB-435): 2.11 µM
- TGI (MDA-MB-435): 4.35 µM
- GI50 (HOP-92 NSCLC): 25.8 µM
- TGI (HOP-92 NSCLC): > 100 µM
- GI50 (NCI-H460 lung): 21.9 µM
- TGI (NCI-H460 lung): 75.8 µM
- GI50 (A498 renal): 18.5 µM
- TGI (A498 renal): 54.3 µM
- GI50 (OVCAR-4 ovarian): 34.9 µM
- TGI (OVCAR-4 ovarian): > 100 µM
- GI50 (U251 CNS): 16.4 µM
- TGI (U251 CNS): 67.1 µM
- GI50 (SNB-75 CNS): 26.2 µM
- TGI (SNB-75 CNS): > 100 µM
- GI50 (MCF7 breast): 6.07 µM
- TGI (MCF7 breast): 45.9 µM
- GI50 (NCI/ADR-RES ovarian): 25.4 µM
- TGI (NCI/ADR-RES ovarian): > 100 µM
- GI50 (MALME-3M melanoma): 19.5 µM
- TGI (MALME-3M melanoma): 48.1 µM
- GI50 (UACC-257 melanoma): 32.5 µM
- TGI (UACC-257 melanoma): > 100 µM
- GI50 (SF-268 CNS): 19.1 µM
- TGI (SF-268 CNS): 55.7 µM
- GI50 (SNB-19 CNS): 45.8 µM
- TGI (SNB-19 CNS): > 100 µM
- GI50 (EKVX NSCLC): 24.8 µM
- TGI (EKVX NSCLC): > 100 µM
- GI50 (HS 578T breast): 8.03 µM
- TGI (HS 578T breast): 53.7 µM
- GI50 (NCI-H522 lung): 36.8 µM
- TGI (NCI-H522 lung): > 100 µM
- GI50 (CAKI-1 renal): 16 µM
- TGI (CAKI-1 renal): 78 µM
- GI50 (SF-295 CNS): 13.8 µM
- TGI (SF-295 CNS): 31.9 µM
- GI50 (HCT-15 colon): 14.5 µM
- TGI (HCT-15 colon): 83.1 µM
- GI50 (UO-31 renal): 46.5 µM
- TGI (UO-31 renal): > 100 µM
- GI50 (DU-145 prostate): 19.7 µM
- TGI (DU-145 prostate): 77.3 µM
- GI50 (OVCAR-5 ovarian): 70.7 µM
- TGI (OVCAR-5 ovarian): > 100 µM
- GI50 (MOLT-4 leukemia): 8.19 µM
- TGI (MOLT-4 leukemia): > 100 µM
